Reference: PubChem BioAssay (NCI)
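Cells were grown in 96-well plates and exposed to each compound for 48 hours at five concentrations; endpoints were interpolated linearly between bracketing concentrations, or set to the highest concentration if not reached. GI50: concentration for 50% inhibition of growth. The concentration for full growth arrest is given as TGI.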

Legend:
Test in all cases: NCI tumour cell line growth inhibition, 48 h
[1] = system: T-47D breast
[2] = system: MDA-MB-435
[3] = system: MDA-MB-231 breast
[4] = system: DU-145 prostate
[5] = system: BT-549 breast
[6] = system: HOP-62 NSCLC

SMILES	GI50 [1] [µM]	TGI [1] [µM]	GI50 [2] [µM]	TGI [2] [µM]	GI50 [3] [µM]	TGI [3] [µM]	GI50 [4] [µM]	TGI [4] [µM]	GI50 [5] [µM]	TGI [5] [µM]	GI50 [6] [µM]	TGI [6] [µM]
O=S(=O)(c1ccc(NC(=S)NC23CC4CC(CC(C4)C2)C3)cc1)N1CCCCC1	3.28	> 100	3.49	> 100	2.41	5.6	4.09	> 100	3	9.4	3.67	> 100
c1ccc(Sc2ccc(Cc3nc4cc5ccccc5cc4[nH]3)cc2)cc1	5.2	26.2	11.9	> 67.7	3.31	29.9	23	> 100	16.4	> 84.9	8.71	> 75.5
C=CCCCCC/C=C\[C@@H](O)C#CC#C/C=C/CO	> 100	> 100	68.8	> 100	40	> 100	> 100	> 100	49.9	> 100	> 100	> 100
CCCCC(CC)COC(=O)C[N+](C)(C)CCOC(c1ccccc1)c1ccccc1 (stereo unspecified)	1.91	4.44	1.71	3.09	1.83	3.88	5.53	18			9.89	28.6
OCC1OC(n2cnc3c2NC=NC[C@H]3O)C(Cl)C1O (stereo partly specified)		> 100		> 100		> 100		> 100		> 100		> 100
COc1ccc(C(=O)c2cc(C)c(OC)c(C)c2)cc1OC(=O)CCl	10.5	67.9	< 0.01	< 0.01	< 0.0112	> 100	< 0.01	> 100	< 0.01	40.5	< 0.0191	> 100
CC(C)c1ccc(-c2cc(-c3cn[nH]c3-c3ccccn3)ccn2)cc1	6.96	> 23.7	9.42	> 25	> 16.5	> 25	16	> 25	10.6	> 25	12	> 25
CCOC(=O)C1CCN(S(=O)(=O)/N=C2/NC(=O)NC2=C(Cl)Cl)CC1	4.41	32.9	1.93	4.66	1.94	3.54	2.37	15.1	1.68	3.65	0.971	16.5
CC(C)c1c(O)c(O)c2c(c1O)C(=O)C(O)=C1C(C)(C)CCC[C@@]12C		16.5		10.1		7.29		18.1		13		> 100
Cc1cc(C(=O)Nc2ccc3cc(CN4CCOCC4)ccc3n2)c(C)n1-c1ccccc1	0.393	4.56	1.38	5.22	8.09	51.8	3.6	35.7	1.17	5.84	1.72	8.05
